Reference: ChEMBL document CHEMBL1145276, “Synthesis and biological evaluation of 6,7-disubstituted 4-aminopyrido[2,3-d]pyrimidines as adenosine kinase inhibitors” (Bioorg Med Chem Lett, 2005)
Each block holds one molecule with its values, some of them ahead of it.

Experiments:
[1] = biological target: T1, Adenosine kinase (Homo sapiens, UniProt P55263); test: Inhibitory concentration against Adenosine Kinase (enzyme)
[2] = biological target: T1, Adenosine kinase; test: Inhibitory concentration against Adenosine Kinase (intact cells)

T1 sequence (P55263 whole entry): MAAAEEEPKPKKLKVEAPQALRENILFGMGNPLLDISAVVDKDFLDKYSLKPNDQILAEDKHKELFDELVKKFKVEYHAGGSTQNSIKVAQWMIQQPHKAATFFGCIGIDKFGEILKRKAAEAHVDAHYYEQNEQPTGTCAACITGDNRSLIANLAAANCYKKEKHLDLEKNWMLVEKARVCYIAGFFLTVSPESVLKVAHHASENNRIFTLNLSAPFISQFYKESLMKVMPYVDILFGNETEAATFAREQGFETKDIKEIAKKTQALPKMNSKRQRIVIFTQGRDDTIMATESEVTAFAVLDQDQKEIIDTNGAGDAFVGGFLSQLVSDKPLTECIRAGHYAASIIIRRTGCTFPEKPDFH

Structure (SMILES): CC(C)Cc1cc2c(N)ncnc2nc1-c1ccc(N(C)C)cc1
IC50 [1]: 200 nM
IC50 [2]: > 1000 nM

Structure (SMILES): CN(C)c1ccc(-c2ccc3c(N)ncnc3n2)cc1
IC50 [1]: 773 nM
IC50 [2]: > 10000 nM

Structure (SMILES): CN(C)c1ccc(-c2cc3c(N)ncnc3nc2-c2ccc(N(C)C)cc2)cc1
IC50 [1]: 183 nM
IC50 [2]: 367 nM

Structure (SMILES): CN(C)c1ccc(-c2nc3ncnc(N)c3cc2-c2cccc(Br)c2)cc1
IC50 [1]: 70 nM
IC50 [2]: > 1000 nM

Structure (SMILES): COc1cccc(-c2cc3c(N)ncnc3nc2-c2ccc(N(C)C)cc2)c1
IC50 [1]: > 1000 nM

Structure (SMILES): CN(C)c1ccc(-c2nc3ncnc(N)c3cc2Cc2ccccc2)cc1
IC50 [1]: 114 nM
IC50 [2]: 650 nM

Structure (SMILES): CN(C)c1ccc(-c2nc3ncnc(N)c3cc2CCc2ccccc2)cc1
IC50 [1]: 433 nM

Structure (SMILES): Nc1ncnc2nc(-c3nccs3)c(Cc3cccc(Br)c3)cc12
IC50 [1]: 900 nM

Structure (SMILES): Cc1ccc(-c2cc3c(N)ncnc3nc2-c2ccc(/C=C/c3ccccn3)cc2)cc1
IC50 [1]: 115 nM

Structure (SMILES): CN(C)c1ccc(-c2cc3c(N)ncnc3nc2-c2ccncc2)cc1
IC50 [1]: 467 nM
IC50 [2]: 4170 nM

Structure (SMILES): COc1ccc(-c2cc3c(N)ncnc3nc2-c2ccc(N(C)C)cc2)cc1
IC50 [1]: 92 nM

Structure (SMILES): Cc1ccc(-c2cc3c(N)ncnc3nc2-c2ccc(-c3cncnc3)cc2)cc1
IC50 [1]: 180 nM

Structure (SMILES): CN(C)c1ccc(-c2nc3ncnc(N)c3cc2-c2ccccc2)cc1
IC50 [1]: 350 nM

Structure (SMILES): Cc1ccc(-c2cc3c(N)ncnc3nc2-c2ccsc2)cc1
IC50 [1]: 47 nM
IC50 [2]: > 1000 nM

Structure (SMILES): CN(C)c1ccc(-c2cnc3c(N)ncnc3n2)cc1
IC50 [1]: 440 nM

Structure (SMILES): Cc1ccc(-c2cc3c(N)ncnc3nc2-c2cc3ccccc3o2)cc1
IC50 [1]: > 1000 nM

Structure (SMILES): CN(C)c1ccc(-c2nc3ncnc(N)c3cc2CCCc2ccccc2)cc1
IC50 [1]: 2230 nM

Stronger by IC50 [1], values ahead:

IC50 [1]: 45 nM
IC50 [2]: 350 nM
Structure (SMILES): COc1ccc(-c2cc3c(N)ncnc3nc2-c2ccc(N(C)C)cc2)cc1OC

IC50 [1]: 8 nM
IC50 [2]: 375 nM
Structure (SMILES): COc1ccc(-c2cc3c(N)ncnc3nc2-c2cccs2)cc1Br

IC50 [1]: 3.8 nM
IC50 [2]: 650 nM
Structure (SMILES): Nc1ncnc2nc(-c3cccs3)c(Cc3cccc(Br)c3)cc12

IC50 [1]: 9 nM
IC50 [2]: 800 nM
Structure (SMILES): Cc1ccc(-c2cc3c(N)ncnc3nc2-c2cccs2)cc1

IC50 [1]: 33 nM
IC50 [2]: 225 nM
Structure (SMILES): COc1ccc(-c2cc3c(N)ncnc3nc2-c2ccc(N(C)C)cc2)cc1Br

IC50 [1]: 11 nM
IC50 [2]: 767 nM
Structure (SMILES): CCCCc1cc2c(N)ncnc2nc1-c1cccs1

IC50 [1]: 20 nM
IC50 [2]: > 1000 nM
Structure (SMILES): CN(C)c1ccc(-c2nc3ncnc(N)c3cc2-c2ccc(Br)cc2)cc1

IC50 [1]: 38 nM
IC50 [2]: 300 nM
Structure (SMILES): COc1ccc(-c2cc3c(N)ncnc3nc2-c2cccs2)cc1OC

IC50 [1]: 30 nM
IC50 [2]: 700 nM
Structure (SMILES): CCCCCc1cc2c(N)ncnc2nc1-c1ccc(N(C)C)cc1
